# Legend:
# [1] = system: HMGB1 released from keratinocytes exposed to UVB; assay: In Vitro UV Stress Test (HMGB1 ELISA); type: cell-based, human; settings: for amount of HMGB1 released compared to untreated UVB exposed cells: UVB exposed keratinocytes, 0.001 w/v %
# Experimental: Human neonatal keratinocytes (available from Thermo) were placed in each well of 4 12-well plates. Each well also contained 2 ml of EPILIFE brand keratinocyte medium. The plates were incubated at 37° C. in a CO2 incubator until cell confluency reached 70%. At this point, the cells, except for the negative control, were exposed to 15 mJ/cm^2 UVB (i.e., UV radiation with a wavelength of from 315-280 nm) in a BIO-SUN brand UV irradiating system (available from Vilber Lourmat, France). After UVB exposure, the keratinocyte medium in each well was replaced with an appropriate medium (i.e., niacinamide medium, nicotinamide riboside medium or a control medium) to produce the test plates. The test plates were incubated for 24 hours at 37° C. in a CO2 incubator, after which the medium in each cell was removed and the HMGB1 level measured using a conventional HMGB1 ELISA kit (REF #ST51011, available from IBL International, Canada) according to the manufacturer's instructions. The test media were made by adding either niacinamide or nicotinamide riboside to EPILIFE brand keratinocyte medium to produce a 0.001 w/v % solution. The control medium was unmodified keratinocyte medium.
# [2] = system: human neonatal keratinocytes; assay: Melanosome Uptake Assay; type: cell-based
# Experimental: Carboxyfluorescein diacetate (“CFDA”) (available from Sigma, St. Louis, Mo.) labeled melanosomes were prepared by incubating CFDA dye in SKMEL-188 culture cells (available from Sloan Kettering Institute) for 2 days at 37° C. in a THERMO SCIENTIFIC FORMA brand CO2 incubator (available from Fisher Scientific, Waltham, Mass.). On day 3 of the test, melansomes were isolated from SKMEL-188 cells by step density centrifugation with sucrose solutions layered with different densities, which is well known in the art. Melanosomes were taken from the 1.6 M-2.0 M sucrose layers. The isolated melanosomes were placed in each well of a 6-well plate along with human neonatal keratinocytes (available from Thermo) (approximately 50,000 keratinocytes/well). 2 ml of the appropriate medium (i.e., the test composition, the positive control or the vehicle control) was added to each of the wells to produce […] (i.e., 3 replicates of each of three composition tested). The test composition was made by adding nicotinamide riboside chloride powder (available from Chromadex, Irvine, Calif.) to EPILIFE brand keratinocyte medium to produce a solution of 0.0025 w/v % nicotinamide riboside. The positive control was made by adding niacinamide to EPILIFE brand keratinocyte medium to produce a solution of 0.0025 w/v % niacinamide. Unmodified keratinocyte medium was used as a vehicle control. The resulting test plates were incubated for two days in EPILIFE brand keratinocyte medium. On day 6 of the test, the keratinocytes were detached from the plates using trypsin and fluorescent-label counted by flow cytometry using an LSRFortessa brand flow cytometer (available from Becton Dickinson, NJ). The percentage of cells that had fluorescence (from CFDA label) was used as a metric to measure incorporation of melanosome uptake. Keratinocytes containing detectable levels of CFDA were counted as a fraction of all keratinocytes passing through the flow cytometer (indicated as % uptake in Table 2). The higher the percentage, the higher level of melanosome uptake into the keratinocytes.
# [3] = system: pigmented spots in facial skin; assay: Oral nicotinamide riboside, appearance of pigmented spots after cessation of the treatment period; type: in vivo; settings: oral composition
# Description: In some instances, the method herein includes identifying a target portion of facial skin in need of treatment and orally ingesting a safe and effective amount of nicotinamide riboside over the course of a multi-day, or multi-week, or multi-month, or multi-year treatment period. Nicotinamide riboside may be incorporated into a suitable oral composition. The target portion of facial skin is any portion of facial skin (e.g., periorbital, cheek, chin, perioral, nose, forehead, etc.) where improvement in the appearance of skin is desired (e.g., reduction in size and/or increase in lightness of hyperpigmented spot). […] In this way, the present compositions may be used as a preventative measure for skin pigmentation disorders. The oral composition may be ingested one time per day, two times per day, three times per day (e.g., around each meal), four times per day or more during the treatment period. The daily dosage of nicotinamide riboside may be greater than 100 mg, preferably greater than 250 mg, more preferably greater than 300 mg, most preferably greater than 400 mg or 500 mg. The weekly dosage may be greater than 2100 mg/week, 2800 mg/week, or 3500 mg/week. The daily dosage may be provided in a single unit dosage form (e.g., a single pill, capsule or tablet) or may be provided in smaller unit dosage forms if the oral composition is intended to be taken more than once per day. […]
Compound,amount of HMGB1 released compared to untreated UVB exposed cells [1],rate of melanosome uptake compared to the vehicle control ([2]; 0.0025 w/v %),"HMGB1 Released ([1]; UV exposure 15 mJ/cm^2 UVB, 0.001% in medium, 24 hours)","% Uptake ([2]; 0.0025 w/v % in keratinocyte medium, fraction of keratinocytes with detectable CFDA-labeled melanosomes, flow cytometry)","Rate of Melanosome Uptake Versus Control ([2]; 0.0025 w/v %, vehicle control = 100%)",time after cessation of the treatment period to regression to baseline in the appearance of the pigmented spots [3]
"NC(=O)c1cccnc1 [Niacinamide, niacinamide, reference compound]",no significant effect,inhibit the rate of melanosome uptake,,,,
"NC(=O)c1ccc[n+]([C@@H]2O[C@H](CO)[C@@H](O)[C@H]2O)c1.[Cl-] [Nicotinamide Riboside Chloride, nicotinamide riboside chloride]",,,11.5 pg/mL,,,
Nicotinamide riboside,released less HMGB1,increase the rate of melanosome uptake,,67%,186%,≤ 2 weeks

# Reference: patent US20160374908A1, “SKIN CARE COMPOSITION AND METHODS OF USING THE SAME” (The Procter & Gamble Company, priority 2015, published 2016)
